Reference: PMC8147293, “Library of Selenocyanate and Diselenide Derivatives as In Vivo Antichagasic Compounds Targeting Trypanosoma cruzi Mitochondrion” (Pharmaceuticals, 2021)
Read-outs that look alike come from different tables or passages of the source.

What was measured:
[1] = system: epimastigotes of T. cruzi Arequipa strain; assay: Screening against extracellular epimastigotes (resazurin); type: cell-based, Trypanosoma cruzi; details: for IC50: Trypanosoma cruzi
[2] = system: Trypanosoma cruzi amastigotes in Vero cells; assay: Infection rate and amastigotes per Vero cell over 10 days; type: cell-based; details: IC25 concentrations, measured at 2 days intervals for 10 days
Method: Before going ahead on in vivo trials, the in vitro infection rate and the average number of amastigotes per Vero cell were also measured at 2 days intervals for 10 days after treating the infected cultures with BZN and potential candidates (8, 10, and 15) (Figure 1) at ICH25 concentrations resulting from amastigotes screening. […]. Fast-acting drugs are urgently needed, and this feature is an additional advantage since they can eliminate the parasite in a few doses.
Trypanocidal activity against amastigotes was determined according to the literature reported previously. […]. […] Each compound concentration was tested in triplicate in four separate determinations.
Figure 1 (A) Percentage of infected Vero cells and (B) number of amastigotes of Trypanosoma cruzi per Vero cell exposed to benznidazole (BZN), 8, 10 and 15. Values constitute means of three separate determinations ± standard deviation. * Significant differences between untreated and treated parasites for α = 0.05. dpi, days post-infection.

[3] = system: Trypanosoma cruzi; assay: PCR of seven organs/tissues of treated BALB/c mice (Spliced Leader sequence); type: in vivo
Method: To assess the efficacy of potential candidates by confirming the absence of infection in the target locations, PCR was carried out at the end of the in vivo timeline (Figure 2C). PCR was positive in seven organs/tissues for the untreated (control) mice groups in both phases, showing the presence of the typical nested amastigotes of the chronic CD.
Infection was carried out by intraperitoneal inoculation of 5 × 10^5 BTs of T. cruzi per mouse in 0.2 mL PBS [56]. The mice were treated by oral route (~200 µL) once daily for 5 consecutive days. The treatment for mice treated in the acute and chronic phases began when the infection was confirmed (9th day post-infection (dpi)) and was established that the animals had entered the chronic phase (100th dpi), respectively.
The mice were divided into six groups (n = 3 per group): 0, negative control group (uninfected and untreated mice); I, positive control group (infected and untreated mice); II, BZN group (mice infected and treated with BZN); III, 8 group (mice infected and treated with 8); IV, 10 group (mice infected and treated with 10); V, 15 group (mice infected and treated with 15). The tested compounds and BZN were prepared at 2 mg·mL^−1 in an aqueous suspension vehicle containing 5% (v/v) DMSO and 0.5% (w/v) hydroxypropyl methylcellulose, as previously reported. Therefore, doses of 20 mg·kg^−1 per day were administered for 5 consecutive days, and vehicle only was administered in the negative and positive control groups.
All in vivo assays for the evaluation of compounds in the acute and chronic CD (Scheme 1)—monitoring of parasitemia, immunosuppression, PCR [59, 60], ELISA [56], and clinical analysis [56]—were performed as previously described. PCR was based on the Spliced Leader (SL) intergenic region sequence of T. cruzi (for detailed description, see literature reported previously).
Figure 2 (A) Parasitemia profiles of each group of mice infected with Trypanosoma cruzi and treated during the acute Chagas disease over a period of 55 days: control (untreated), benznidazole (BZN), 8, 10 and 15. Treatment days are represented in grey. […]. (B) Parasitemia reactivation by fresh blood in the chronic Chagas disease after the immunosuppression cycles for each group of mice treated during the acute and chronic phases of the disease: control (untreated), benznidazole (BZN), 8, 10, and 15. […]. (C) PCR analysis of seven organs/tissues with the Trypanosoma cruzi Spliced Leader (SL) intergenic region sequence in the chronic Chagas disease for each group of mice treated during the acute and chronic phases of the disease: (a) control (untreated), (b) benznidazole, (c) 8, (d) 10, and (e) 15.

[4] = system: epimastigotes of T. cruzi Arequipa; assay: 1H NMR analysis of excreted metabolites; type: cell-based, Trypanosoma cruzi; details: IC25 concentrations, 72 h
Method: 5 × 10^5 epimastigotes·mL^−1 of T. cruzi Arequipa were treated by adding the tested compounds at IC25 concentrations in 25 cm^2 cell culture flasks at 28 °C for 72 h. Untreated controls were also included. Cultures were then centrifuged and filtered, and the metabolites of the supernatants were analyzed using a ^1H NMR spectrometer (VARIAN DIRECT DRIVE 500 MHz […]) with AutoX probe, D2O as solvent and 2,2-dimethyl-2-silapentane-5-sulphonate as the reference signal. Chemical shifts were expressed in parts per million (ppm), and analyses were conducted as previously reported.

FC(F)(F)c1ccc(C[Se][Se]Cc2ccc(C(F)(F)F)cc2)cc1 [compound 8]
Selectivity Index Epimast. ([1]; IC50 Vero cells/IC50 epimastigotes): 23
IC50 ([1]; Table 1, T. cruzi epimastigotes, 48 h treatment + 24 h resazurin, read-out: Activity IC50 Epimast.): 1.9 ± 0.1 µM
IC50 ([1]; Table S1, cultured epimastigote form of T. cruzi, read-out: Activity IC50): ≤ 10 µM
infection rate and average number of amastigotes per Vero cell [2]: decrease in both infection rate and number of amastigotes per cell in a time-dependent manner
negative PCR (parasite-free locations) ([3]; mice treated in acute CD): 3/7
negative PCR (parasite-free locations) ([3]; mice treated in chronic CD): 4/7
variation of excreted metabolites versus untreated parasites [4]: < 10%
